From US20140080869A1, “Methods for Treating HCV” (priority 2012, published 2014)
Where two headings read alike, the source gives them in different places.

Experiments:
[1] = system: HCV replicon with NS5A genotype 5a L31F variant; assay: Transient chimeric replicon assay, genotype 5a L31F; format: cell-based
Description: (§1) Transiently replicating chimeric replicons containing NS5A from genotype 2-6 wild types or replicons containing variants within NS5A were constructed in the 1b-Con1 background. These replicons also contained a firefly luciferase reporter gene. Variants were introduced by site-directed mutagenesis using the Change-IT Multiple Mutation Site Directed Mutagenesis Kit (USB). After the mutagenesis was confirmed by sequence analysis, the plasmids were linearized with ScaI restriction enzyme. The TranscriptAid T7 High Yield Transcription Kit (Fermentas) was used to transcribe the HCV subgenomic RNA from the plasmids. The RNA was transfected via electroporation into a Huh-7 derived cell line as described (see Middleton et al. and Tripathi et al., supra) except that 3×10^6 cells were electroporated with 15 μg of template RNA and the 96 well plate was seeded with 7.5×10^3 cells per well. Four hours post-transfection, the wells from one plate were harvested for luciferase measurement. […] Luciferin solution (50 μl, Promega) was added to each well, and luciferase activity was measured with a Victor II luminometer (Perkin-Elmer). The percent inhibition of HCV RNA replication was calculated for each compound concentration and the EC50 value was calculated using nonlinear regression curve fitting to the 4-parameter logistic equation and GraphPad Prism 4 software.

[2] = system: HCV replicon with NS5A genotype 2b L31V variant; assay: Transient chimeric replicon assay, genotype 2b L31V; format: cell-based
Description: as §1

[3] = system: HCV replicon with NS5A from genotype 2b; assay: microbe, parasite or virus in culture; details: Hepatitis C virus, read-out: Mean EC50 ± Std. Dev.
[4] = system: HCV genotype 1b-Con1 stable subgenomic replicon; details: read-out: Mean EC50 ± Std. Dev.
[5] = system: HCV replicon with NS5A genotype 2a T24A variant; assay: Transient chimeric replicon assay, genotype 2a T24A; format: cell-based
Description: as §1

[6] = system: HCV replicon with NS5A from genotype 6a; assay: microbe, parasite or virus in culture; details: Hepatitis C virus, read-out: Mean EC50 ± Std. Dev.
[7] = system: HCV replicon with NS5A from genotype 3a; details: read-out: Mean EC50 ± Std. Dev.
[8] = system: HCV replicon with NS5A genotype 6a T58N variant; assay: Transient chimeric replicon assay, genotype 6a T58N; format: cell-based
Description: as §1

[9] = system: HCV replicon with NS5A from genotype 6a; details: read-out: Mean EC50 ± Std. Dev.
[10] = system: HCV replicon with NS5A genotype 5a wild type; assay: Transient chimeric replicon assay, genotype 5a WT; format: cell-based; details: Hepatitis C virus
Description: as §1

[11] = system: HCV replicon with NS5A from genotype 2b; details: read-out: Mean EC50 ± Std. Dev.
[12] = system: HCV replicon with NS5A genotype 6a T58A variant; assay: Transient chimeric replicon assay, genotype 6a T58A; format: cell-based
Description: as §1

[13] = system: HCV replicon with NS5A genotype 3a M28T variant; assay: Transient chimeric replicon assay, genotype 3a M28T; format: cell-based
Description: as §1

[14] = system: HCV replicon with NS5A from genotype 3a; assay: microbe, parasite or virus in culture; details: Hepatitis C virus, read-out: Mean EC50 ± Std. Dev.
[15] = system: HCV replicon with NS5A from genotype 2a; details: read-out: Mean EC50 ± Std. Dev.
[16] = system: HCV replicon with NS5A genotype 2a wild type; assay: microbe, parasite or virus in culture; format: cell-based; details: Hepatitis C virus, read-out: Average EC50
Description: (§2) Transiently replicating chimeric replicons containing NS5A from genotype 2-6 wild types or replicons containing variants within NS5A were constructed in the 1b-Con1 background. These replicons also contained a firefly luciferase reporter gene. Variants were introduced by site-directed mutagenesis using the Change-IT Multiple Mutation Site Directed Mutagenesis Kit (USB). After the mutagenesis was confirmed by sequence analysis, the plasmids were linearized with ScaI restriction enzyme. The TranscriptAid T7 High Yield Transcription Kit (Fermentas) was used to transcribe the HCV subgenomic RNA from the plasmids. The RNA was transfected via electroporation into a Huh-7 derived cell line as described (see Middleton et al. and Tripathi et al., supra) except that 3×10^6 cells were electroporated with 15 μg of template RNA and the 96 well plate was seeded with 7.5×10^3 cells per well. Four hours post-transfection, the wells from one plate were harvested for luciferase measurement. This plate provided a measure of the amount of translatable input RNA, and therefore transfection efficiency. To the wells of the remaining plates, a half-log dilution series of the test compound in culture medium (0.5% DMSO final concentration) was added, and plates were incubated at 37° C., 5% CO2 in a humidified incubator for 4 days. After this period, the media was removed and the plates were washed with 100 μl phosphate-buffered saline per well. Luciferin solution (50 μl, Promega) was added to each well, and luciferase activity was measured with a Victor II luminometer (Perkin-Elmer). The percent inhibition of HCV RNA replication was calculated for each compound concentration and the EC50 value was calculated using nonlinear regression curve fitting to the 4-parameter logistic equation and GraphPad Prism 4 software.

[17] = system: HCV replicon with NS5A genotype 3a wild type; assay: microbe, parasite or virus in culture; format: cell-based; details: Hepatitis C virus, read-out: Average EC50
Description: as §2

[18] = system: HCV replicon with NS5A genotype 6a wild type; assay: microbe, parasite or virus in culture; format: cell-based; details: Hepatitis C virus, read-out: Average EC50
Description: as §2

[19] = system: HCV genotype 1b-Con1 stable subgenomic replicon; assay: microbe, parasite or virus in culture; details: Hepatitis C virus, read-out: Mean EC50 ± Std. Dev.
[20] = system: HCV replicon with NS5A genotype 2b wild type; assay: Transient chimeric replicon assay, genotype 2b WT; format: cell-based; details: Hepatitis C virus
Description: as §1

[21] = system: HCV replicon with NS5A from genotype 2a; assay: microbe, parasite or virus in culture; details: Hepatitis C virus, read-out: Mean EC50 ± Std. Dev.
[22] = system: HCV replicon with NS5A genotype 3a Y93H variant; assay: Transient chimeric replicon assay, genotype 3a Y93H; format: cell-based; details: Hepatitis C virus
Description: as §1

[23] = system: HCV replicon with NS5A genotype 5a L31V variant; assay: Transient chimeric replicon assay, genotype 5a L31V; format: cell-based; details: Hepatitis C virus
Description: as §1

COC(=O)N[C@H](C(=O)N1CCC[C@H]1c1nc2cc([C@H]3CC[C@H](c4ccc5[nH]c([C@@H]6CCCN6C(=O)[C@@H](NC(=O)OC)C(C)C)nc5c4)N3c3cc(F)c(N4CCC(c5ccccc5)CC4)c(F)c3)ccc2[nH]1)C(C)C [Compound 1, methyl {(2S)-1-[(2S)-2-{5-[(2R,5R)-1-[3,5-difluoro-4-(4-phenylpiperidin-1-yl)phenyl]-5-{2-[(2S)-1-{(2S)-2-[(methoxycarbonyl)amino]-3-methylbutanoyl}pyrrolidin-2-yl]-1H-benzimidazol-5-yl}pyrrolidin-2-yl]-1H-benzimidazol-2-yl}pyrrolidin-1-yl]-3-methyl-1-oxobutan-2-yl}carbamate]
EC50 [1]: 3.3 pM
EC50 ([1]; Hepatitis C virus): < 5 pM
EC50 [2]: 3 pM
EC50 ([2]; Hepatitis C virus): < 5 pM
EC50 [3]: < 10 pM
EC50 [4]: 5.1 ± 1.8 pM
EC50 [5]: 3 pM
EC50 ([5]; Hepatitis C virus): < 5 pM
EC50 [6]: < 10 pM
EC50 [7]: 6.4 ± 2.8 pM
EC50 [8]: 3.2 pM
EC50 ([8]; Hepatitis C virus): < 5 pM
EC50 [9]: 8.7 ± 5.5 pM
EC50 [10]: 1.1 pM
EC50 [11]: 6.4 ± 3.1 pM
EC50 [12]: 2.5 pM
EC50 ([12]; Hepatitis C virus): < 5 pM
EC50 [13]: 4.6 pM
EC50 ([13]; Hepatitis C virus): < 5 pM
EC50 [14]: < 10 pM
EC50 [15]: 9 ± 4.6 pM
EC50 [16]: 3 pM
EC50 [17]: 2.9 pM
EC50 [18]: 2.4 pM
EC50 [19]: < 10 pM
EC50 [20]: 1.8 pM
EC50 [21]: < 10 pM
EC50 [22]: 273 pM
EC50 [23]: < 5 pM
